Data taken from patent publication US8785459B2, “Quinazoline compounds as kinase inhibitors” (Development Center for Biotechnology, priority 2011, dated 2014).

What was measured:
B-Raf = B-Raf (Homo sapiens (Human), UniProt P15056); test: Raf kinase assay (B-Raf), [33P] incorporation into MEK1(K97R); assay type: biochemical; conditions: for inhibition at 1 µM: 1.0 μM compound, read-out: B-Raf inhibition at 1.0 μM
Procedure, shortened: (§1)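 [33P] transfer to kinase-dead MEK1(K97R) substrate (500 ng) measured after 30 min at 30 °C in Tris pH 7.5 buffer containing 8 μM ATP. Enzyme inputs were 2 ng for C-Raf and 5 ng for B-Raf and B-Raf V600E. Duplicate 3-fold serial dilutions gave the half-maximal inhibitory concentration.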

COLO205 = test: Anti-proliferative activity, CellTiter-96 assay, COLO205; assay type: cell-based; conditions: Homo sapiens, COLO 205, COLO205 cells, 72 hours incubation
Experimental: (§2) Antiproliferative Activity
(§3) The anti-proliferative activities of the compounds with formula (I) and formula (II) with respect to four human cancer cell lines (A549, A375, MDA-MB-231, and COLO205) were measured using the CellTiter™-96 assay kit (Promega) following the manufacturer's instructions. In brief, the cells were maintained in DMEM containing 10% FCS and incubated at 37° C. in 5% CO2 atmosphere. Cells were plated at a density of 2000 cells/well of a 96-well plate for 24 h, then treated with different concentrations of the compounds, and incubated for another 72 hours. At the end of the incubation, CellTiter™-96 Aqueous One Solution Reagent (Promega) was added and incubated for another 4.0 hours. Cell viability was determined by measuring absorbance at 490 nm using EMax® microplate reader (Molecular Devices). Data were processed and analyzed using GraphPad Prism version 4.

C-Raf = C-Raf (Homo sapiens (Human), UniProt P04049); test: Raf kinase assay (C-Raf), [33P] incorporation into MEK1(K97R); assay type: biochemical
C-Raf, sequence (P04049 whole entry): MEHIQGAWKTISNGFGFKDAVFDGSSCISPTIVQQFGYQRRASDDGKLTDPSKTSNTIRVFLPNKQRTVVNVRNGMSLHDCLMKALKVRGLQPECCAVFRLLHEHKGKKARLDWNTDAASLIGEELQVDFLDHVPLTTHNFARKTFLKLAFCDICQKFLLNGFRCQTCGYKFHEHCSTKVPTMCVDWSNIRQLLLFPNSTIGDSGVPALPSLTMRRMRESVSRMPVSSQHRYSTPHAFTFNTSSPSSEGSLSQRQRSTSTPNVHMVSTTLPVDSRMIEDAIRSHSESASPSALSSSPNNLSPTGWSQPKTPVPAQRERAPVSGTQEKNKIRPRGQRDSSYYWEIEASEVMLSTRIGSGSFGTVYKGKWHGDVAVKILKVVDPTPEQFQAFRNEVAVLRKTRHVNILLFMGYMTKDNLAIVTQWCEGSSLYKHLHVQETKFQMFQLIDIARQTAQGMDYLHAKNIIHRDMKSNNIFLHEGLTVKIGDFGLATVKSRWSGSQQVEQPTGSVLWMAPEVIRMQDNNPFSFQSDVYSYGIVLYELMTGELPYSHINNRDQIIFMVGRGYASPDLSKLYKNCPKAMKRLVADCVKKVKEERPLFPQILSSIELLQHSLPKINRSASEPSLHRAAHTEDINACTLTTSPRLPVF
Procedure, shortened: as §1

MDA-MB-231 = test: Anti-proliferative activity, CellTiter-96 assay, MDA-MB-231; assay type: cell-based; conditions: Homo sapiens, MDA-MB-231 cells, 72 hours incubation
Experimental: as §2, §3

A549 = test: Anti-proliferative activity, CellTiter-96 assay, A549; assay type: cell-based; conditions: Homo sapiens, A549 cells, 72 hours incubation
Experimental: as §2, §3

B-Raf (V600E) = B-Raf (V600E) (Homo sapiens (Human), UniProt P15056, V600E); test: Raf kinase assay (B-Raf (V600E)), [33P] incorporation into MEK1(K97R); assay type: biochemical
B-Raf (V600E), sequence (P15056 whole entry V600E): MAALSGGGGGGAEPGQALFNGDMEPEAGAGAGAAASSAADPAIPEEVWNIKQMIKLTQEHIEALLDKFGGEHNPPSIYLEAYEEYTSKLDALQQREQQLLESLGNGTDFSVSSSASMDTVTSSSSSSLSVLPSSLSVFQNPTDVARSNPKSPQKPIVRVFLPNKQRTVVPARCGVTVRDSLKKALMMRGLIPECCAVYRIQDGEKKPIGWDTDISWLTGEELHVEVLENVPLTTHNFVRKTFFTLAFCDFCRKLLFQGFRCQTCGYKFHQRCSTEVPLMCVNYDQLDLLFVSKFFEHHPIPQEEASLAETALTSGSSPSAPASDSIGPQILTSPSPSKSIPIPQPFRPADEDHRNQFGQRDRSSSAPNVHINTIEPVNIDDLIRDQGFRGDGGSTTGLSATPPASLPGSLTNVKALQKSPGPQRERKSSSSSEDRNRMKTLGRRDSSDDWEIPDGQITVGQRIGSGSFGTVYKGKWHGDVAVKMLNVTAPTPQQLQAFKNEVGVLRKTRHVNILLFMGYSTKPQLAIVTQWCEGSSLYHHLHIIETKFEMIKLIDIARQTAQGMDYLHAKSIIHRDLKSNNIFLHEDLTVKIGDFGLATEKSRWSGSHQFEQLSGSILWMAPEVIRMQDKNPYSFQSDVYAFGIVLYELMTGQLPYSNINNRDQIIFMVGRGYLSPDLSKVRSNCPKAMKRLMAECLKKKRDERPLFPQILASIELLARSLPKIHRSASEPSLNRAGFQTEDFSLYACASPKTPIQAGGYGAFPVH
Procedure, shortened: as §1

A375 = test: Anti-proliferative activity, CellTiter-96 assay, A375; assay type: cell-based; conditions: Homo sapiens, A-375, A375 cells, 72 hours incubation
Experimental: as §2, §3

B-Raf, sequence (P15056 whole entry): as the sequence (P15056 whole entry V600E) above, with E600V counted along it

Row | SMILES | IC50 (B-Raf) [nM] | inhibition at 1 µM (B-Raf) [%] | IC50 (COLO205) [nM] | IC50 (C-Raf) [nM] | IC50 (MDA-MB-231) [nM] | IC50 (A549) [nM] | IC50 (B-Raf (V600E)) [nM] | IC50 (A375) [nM]
1 | COc1ccc(-c2ccc3ncnc(Nc4cccc(O)c4)c3c2)cc1 [Compound 64, 3-(6-(4-methoxyphenyl)quinazolin-4-ylamino)phenol] | 62.4 | 91.9 | 17300 ± 1900 | 1230 | 15600 ± 800 | 11000 ± 3300 | 105 | 6000 ± 300
2 | COc1cccc(-c2ccc3nccc(Nc4cccc5[nH]ncc45)c3c2)c1F [Compound 111, 6-(2-fluoro-3-methoxyphenyl)-N-(1H-indazol-4-yl)quinolin-4-amine] | 83.4 | 89.1 | 32300 ± 8500 | 290 | 26500 ± 7300 | 25100 ± 7100 | 99.9 | 36300 ± 1700
3 | COc1cc(-c2cc3c(Nc4cccc(O)c4)ncnc3cc2OC)ccc1O [Compound 31, 4-(4-(3-hydroxyphenylamino)-7-methoxyquinazolin-6-yl)-2-methoxyphenol] | 87 | 93.8 | > 50000 | 781 | > 50000 | > 50000 | 94 | > 50000
4 | COc1cc(-c2ccc3ncnc(Nc4ccc(F)c(O)c4F)c3c2)ccc1O [Compound 162, 2,6-difluoro-3-(6-(4-hydroxy-3-methoxyphenyl)quinazolin-4-ylamino)phenol] | 2.9 | 94.6 | 5100 ± 1400 | 197 | 2100 ± 100 | 2400 ± 700 | 4.5 | 1500 ± 100
5 | Oc1cccc(Nc2ncnc3ccc(-c4ccccc4)cc23)c1 [Compound 133, 3-(6-phenylquinazolin-4-ylamino)phenol] | 168 | 85.8 | 11500 ± 800 | 6640 | 33800 ± 6900 | 9300 ± 1300 | 254 | 6000 ± 1000
6 | COc1cc(-c2ccc3ncnc(Nc4ccc(F)c(Cl)c4)c3c2)ccc1O [Compound 14, 4-(4-(3-chloro-4-fluorophenylamino)quinazolin-6-yl)-2-methoxyphenol] | 1010 | 52.7 | 31600 ± 2500 | 2160 | > 50000 | > 50000 | 1090 | > 50000
7 | COc1cc(-c2ccc3ncnc(Nc4cc(O)c(Cl)cc4Cl)c3c2)ccc1O [Compound 61, 2,4-dichloro-5-(6-(4-hydroxy-3-methoxyphenyl)quinazolin-4-ylamino)phenol] | 40.1 | 92.6 | 7400 ± 1900 | 284 | 2900 ± 400 | 1600 ± 400 | 59.9 | 1900 ± 500
8 | COc1cc(-c2ccc3ncnc(Nc4cc(O)ccc4C)c3c2)ccc1O [Compound 154, 4-(4-(5-hydroxy-2-methylphenylamino)quinazolin-6-yl)-2-methoxyphenol] | 60 | 88.4 | 6400 ± 600 | 590 | 1000 ± 100 | 900 ± 500 | 70.9 | 1000 ± 200
9 | Oc1ccc(-c2ccc3ncnc(Nc4cccc(O)c4)c3c2)cc1 [Compound 62, 3-(6-(4-hydroxyphenyl)quinazolin-4-ylamino)phenol] | 32.5 | 93.8 | 11700 ± 2500 | 335 | 7200 ± 1400 | 3700 ± 1600 | 60.1 | 2600 ± 100
10 | COc1cc(-c2ccc3ncnc(Nc4ccc(F)c(O)c4)c3c2)ccc1O [Compound 161, 4-(4-(4-fluoro-3-hydroxyphenylamino)quinazolin-6-yl)-2-methoxyphenol] | 16.9 | 94.7 | 5200 ± 1800 | 133 | 2100 ± 500 | 1500 ± 300 | 23.4 | 1000 ± 100
11 | COc1cc(-c2ccc3ncnc(Nc4cc(O)c(C)cc4F)c3c2)ccc1O [Compound 156, 4-fluoro-5-(6-(4-hydroxy-3-methoxyphenyl)quinazolin-4-ylamino)-2-methylphenol] | 57.3 | 92.4 | 9600 ± 3800 | 301 | 2800 ± 200 | 1600 ± 400 | 81.7 | 1900 ± 300
12 | COc1cc(-c2ccc3ncnc(Nc4ccc(F)cc4)c3c2)ccc1O [Compound 15, 4-(4-(4-fluorophenylamino)quinazolin-6-yl)-2-methoxyphenol] | 1150 | 44.4 | 11800 ± 4600 | 1450 | 4100 ± 300 | 2500 ± 600 | 1020 | 2700 ± 200

Other lines, results leading:

Row | IC50 (B-Raf) [nM] | inhibition at 1 µM (B-Raf) [%] | IC50 (COLO205) [nM] | IC50 (C-Raf) [nM] | IC50 (MDA-MB-231) [nM] | IC50 (A549) [nM] | IC50 (B-Raf (V600E)) [nM] | IC50 (A375) [nM] | SMILES
13 | 39 | 91 | 6800 ± 160 | 152 | 1700 ± 500 | 1300 ± 200 | 56.5 | 1300 ± 300 | COc1cc(-c2ccc3ncnc(Nc4cccc(O)c4Cl)c3c2)ccc1O [Compound 60, 2-chloro-3-(6-(4-hydroxy-3-methoxyphenyl)quinazolin-4-ylamino)phenol]
14 | 126 | 85.1 | 13600 ± 1500 | 521 | 10100 ± 1100 | 16900 ± 600 | 164 | 14200 ± 1000 | CCCS(=O)(=O)Nc1cccc(-c2ccc3ncnc(Nc4cccc5[nH]ncc45)c3c2)c1 [Compound 109, N-(3-(4-(1H-indazol-4-ylamino)quinazolin-6-yl)phenyl)propane-1-sulfonamide]
15 | 157 | 85 | 18500 ± 1100 | 672 | 11600 ± 1700 | 9600 ± 1200 | 221 | 11100 ± 800 | COc1ccc(-c2ccc3ncnc(Nc4cccc5[nH]ncc45)c3c2)cc1F [Compound 75, 6-(3-fluoro-4-methoxyphenyl)-N-(1H-indazol-4-yl)quinazolin-4-amine]
16 | 134 | 88.2 | 7300 ± 1000 | 277 | 10900 ± 1400 | 12100 ± 3200 | 119 | 8500 ± 1200 | CS(=O)(=O)c1ccc(-c2ccc3nccc(Nc4cccc5[nH]ncc45)c3c2)cc1 [Compound 120, N-(1H-indazol-4-yl)-6-(4-(methylsulfonyl)phenyl)quinolin-4-amine]
17 | 107 | 86.6 | 8900 ± 100 | 321 | 13600 ± 900 | 23500 ± 500 | 114 | 23700 ± 2400 | NC(=O)c1cccc(-c2ccc3nccc(Nc4cccc5[nH]ncc45)c3c2)c1 [Compound 117, 3-(4-(1H-indazol-4-ylamino)quinolin-6-yl)benzamide]
18 | 2.4 | 94.2 | 15700 ± 2000 | 256 | 17800 ± 200 | 26000 ± 3200 | 4.5 | 4100 ± 700 | Oc1c(F)ccc(Nc2ncnc3ccc(-c4ccc5[nH]ncc5c4)cc23)c1F [Compound 163, 3-(6-(1H-indazol-5-yl)quinazolin-4-ylamino)-2,6-difluorophenol]
19 | 141 | 86.1 | 13000 ± 2400 | 568 | 12600 ± 1800 | 14200 ± 2400 | 161 | 7700 ± 400 | c1cc(Nc2ncnc3ccc(-c4ccc5c(c4)OCO5)cc23)c2cn[nH]c2c1 [Compound 96, 6-(benzo[d][1,3]dioxol-5-yl)-N-(1H-indazol-4-yl)quinazolin-4-amine]
20 | 73.9 | 92.5 | 9600 ± 1600 | 338 | 9600 ± 1600 | 12700 ± 5300 | 105 | 7200 ± 600 | COc1ccc(-c2ccc3ncnc(Nc4cccc5[nH]ncc45)c3c2)cc1C=O [Compound 98, 5-(4-(1H-indazol-4-ylamino)quinazolin-6-yl)-2-methoxybenzaldehyde]
21 | 172 | 83.1 | 11500 ± 1300 | 757 | 14800 ± 500 | 8900 ± 1300 | 195 | 11500 ± 1900 | COc1cc(-c2ccc3ncnc(Nc4cccc5[nH]ncc45)c3c2)ccc1F [Compound 84, 6-(4-fluoro-3-methoxyphenyl)-N-(1H-indazol-4-yl)quinazolin-4-amine]
22 | 134 | 87 | > 50000 | 294 | > 50000 | > 50000 | 199 | > 50000 | N#Cc1cccc(-c2ccc3ncnc(Nc4cccc5[nH]ncc45)c3c2)c1 [Compound 102, 3-(4-(1H-indazol-4-ylamino)quinazolin-6-yl)benzonitrile]
